Results reported in PubChem BioAssay (NCI).
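Results reflect a 48-hour exposure of cells in 96-well plates to compound at five concentrations. TGI denotes the concentration required for complete inhibition of growth.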

Key:
Experiment in all cases: NCI tumour cell line growth inhibition, 48 h
[1] = tested on: UACC-257 melanoma
[2] = tested on: EKVX NSCLC
[3] = tested on: M19-MEL melanoma
[4] = tested on: HOP-18 NSCLC
[5] = tested on: KM12 colon
[6] = tested on: OVCAR-3 ovarian
[7] = tested on: M14 melanoma
[8] = tested on: MOLT-4 leukemia
[9] = tested on: LXFL 529 NSCLC
[10] = tested on: UACC-62 melanoma
[11] = tested on: U251 CNS
[12] = tested on: OVCAR-4 ovarian
[13] = tested on: RPMI-8226 leukemia
[14] = tested on: SF-539 CNS
[15] = tested on: ACHN renal
[16] = tested on: SW-620 colon
[17] = tested on: SR leukemia
[18] = tested on: DMS 114 small cell lung
[19] = tested on: SNB-75 CNS
[20] = tested on: HOP-92 NSCLC
[21] = tested on: HT29 colon
[22] = tested on: OVCAR-8 ovarian
[23] = tested on: OVCAR-5 ovarian
[24] = tested on: SF-268 CNS
[25] = tested on: SK-MEL-5 melanoma
[26] = tested on: NCI-H23 lung
[27] = tested on: HL-60(TB) leukemia
[28] = tested on: COLO 205 colon
[29] = tested on: 786-0 renal
[30] = tested on: SK-OV-3 ovarian
[31] = tested on: LOX IMVI melanoma
[32] = tested on: HCT-15 colon
[33] = tested on: NCI-H460 lung
[34] = tested on: NCI-H226 lung
[35] = tested on: A498 renal
[36] = tested on: NCI-H522 lung
[37] = tested on: CAKI-1 renal
[38] = tested on: MALME-3M melanoma
[39] = tested on: RXF-631 renal
[40] = tested on: K-562 leukemia
[41] = tested on: SK-MEL-28 melanoma
[42] = tested on: HOP-62 NSCLC
[43] = tested on: UO-31 renal
[44] = tested on: DLD-1 colon
[45] = tested on: SNB-19 CNS
[46] = tested on: CCRF-CEM leukemia
[47] = tested on: DMS 273 small cell lung
[48] = tested on: KM20L2 colon
[49] = tested on: SN12C renal
[50] = tested on: SNB-78 CNS
[51] = tested on: TK-10 renal
[52] = tested on: XF 498 CNS
[53] = tested on: IGROV1 ovarian
[54] = tested on: HCT-116 colon
[55] = tested on: SK-MEL-2 melanoma
[56] = tested on: A549 NSCLC
[57] = tested on: RXF 393 renal
[58] = tested on: HCC-2998 colon
[59] = tested on: SF-295 CNS

## O=C1C=C(Nc2ccccc2C(=O)CC(=O)C(=O)Nc2ccc(Cl)cc2)c2ccccc2C1=O
[1]
  TGI: 21.7 µM
[2]
  TGI: 99 µM
[3]
  TGI: 4.41 µM
[4]
  TGI: 8.72 µM
[5]
  TGI: 54.6 µM
[6]
  TGI: 9.29 µM
[7]
  TGI: 24.1 µM
[8]
  TGI: > 38.5 µM
[9]
  TGI: 42.6 µM
[10]
  TGI: 29.8 µM
[11]
  TGI: 68.2 µM
[12]
  TGI: 37 µM
[13]
  TGI: > 33.2 µM
[14]
  TGI: 50.2 µM
[15]
  TGI: 55.1 µM
[16]
  TGI: 27 µM
[17]
  TGI: > 100 µM
[18]
  TGI: 16.8 µM
[19]
  TGI: 36 µM
[20]
  TGI: > 100 µM
[21]
  TGI: > 100 µM
[22]
  TGI: 37.4 µM
[23]
  TGI: 35.6 µM
[24]
  TGI: 57.5 µM
[25]
  TGI: 15.4 µM
[26]
  TGI: 29.6 µM
[27]
  TGI: > 100 µM
[28]
  TGI: 34.5 µM
[29]
  TGI: 62.1 µM
[30]
  TGI: 76.1 µM
[31]
  TGI: 4.98 µM
[32]
  TGI: 24.8 µM
[33]
  TGI: 34.7 µM
[34]
  TGI: > 56.6 µM
[35]
  TGI: > 100 µM
[36]
  TGI: 26.1 µM
[37]
  TGI: > 83.4 µM
[38]
  TGI: 24.1 µM
[39]
  TGI: > 80.8 µM
[40]
  TGI: 40.9 µM
[41]
  TGI: 35 µM
[42]
  TGI: 44.5 µM
[43]
  TGI: 65.6 µM
[44]
  TGI: 35.7 µM
[45]
  TGI: 43.9 µM
[46]
  TGI: 33.1 µM
[47]
  TGI: 31.1 µM
[48]
  TGI: > 100 µM
[49]
  TGI: 26 µM
[50]
  TGI: 81 µM
[51]
  TGI: > 100 µM
[52]
  TGI: 28.6 µM
[53]
  TGI: > 88.5 µM
[54]
  TGI: 28.8 µM
[55]
  TGI: 34.3 µM
[56]
  TGI: 32.4 µM
[57]
  TGI: 45.9 µM
[58]
  TGI: 35.8 µM

## COc1cccc2c1C(=O)c1c(O)c3c(c(O)c1C2=O)C[C@@](O)(C(C)=O)CC3S(=O)(=O)O (stereo not given in full)
[1]
  TGI: > 100 µM
[2]
  TGI: > 100 µM
[3]
  TGI: > 100 µM
[4]
  TGI: > 100 µM
[5]
  TGI: > 100 µM
[6]
  TGI: > 100 µM
[7]
  TGI: > 100 µM
[8]
  TGI: > 100 µM
[9]
  TGI: > 100 µM
[10]
  TGI: > 100 µM
[11]
  TGI: > 100 µM
[12]
  TGI: > 100 µM
[13]
  TGI: > 100 µM
[14]
  TGI: > 100 µM
[15]
  TGI: > 100 µM
[16]
  TGI: > 100 µM
[17]
  TGI: > 100 µM
[18]
  TGI: > 100 µM
[19]
  TGI: > 93 µM
[20]
  TGI: > 100 µM
[21]
  TGI: > 100 µM
[22]
  TGI: > 100 µM
[23]
  TGI: > 100 µM
[24]
  TGI: > 100 µM
[25]
  TGI: > 100 µM
[26]
  TGI: > 100 µM
[59]
  TGI: > 100 µM
[27]
  TGI: > 100 µM
[28]
  TGI: > 100 µM
[29]
  TGI: > 100 µM
[30]
  TGI: > 100 µM
[31]
  TGI: > 100 µM
[32]
  TGI: > 100 µM
[33]
  TGI: > 100 µM
[34]
  TGI: > 100 µM
[35]
  TGI: > 100 µM
[36]
  TGI: > 100 µM
[37]
  TGI: > 100 µM
[38]
  TGI: > 100 µM
[39]
  TGI: > 100 µM
[40]
  TGI: > 100 µM
[41]
  TGI: > 100 µM
[42]
  TGI: > 100 µM
[43]
  TGI: > 100 µM
[44]
  TGI: > 100 µM
[45]
  TGI: > 100 µM
[46]
  TGI: > 100 µM
[47]
  TGI: > 100 µM
[48]
  TGI: > 100 µM
[49]
  TGI: > 100 µM
[50]
  TGI: > 100 µM
[51]
  TGI: > 100 µM
[52]
  TGI: > 100 µM
[53]
  TGI: > 100 µM
[54]
  TGI: > 100 µM
[55]
  TGI: > 100 µM
[56]
  TGI: > 100 µM
[57]
  TGI: > 100 µM
[58]
  TGI: > 100 µM

## COC(=O)[C@H]1COC(=S)N1C(=O)[C@@H](C)[C@H](O)C(C)C
[1]
  TGI: > 100 µM
[2]
  TGI: > 100 µM
[3]
  TGI: > 100 µM
[4]
  TGI: > 100 µM
[5]
  TGI: > 100 µM
[6]
  TGI: > 100 µM
[7]
  TGI: > 100 µM
[8]
  TGI: > 100 µM
[9]
  TGI: > 100 µM
[10]
  TGI: > 100 µM
[11]
  TGI: > 100 µM
[12]
  TGI: > 100 µM
[13]
  TGI: > 100 µM
[14]
  TGI: > 100 µM
[15]
  TGI: > 100 µM
[16]
  TGI: > 100 µM
[17]
  TGI: > 100 µM
[18]
  TGI: > 100 µM
[19]
  TGI: > 100 µM
[20]
  TGI: > 100 µM
[21]
  TGI: > 100 µM
[22]
  TGI: > 100 µM
[23]
  TGI: > 100 µM
[24]
  TGI: > 100 µM
[25]
  TGI: > 100 µM
[26]
  TGI: > 100 µM
[59]
  TGI: > 100 µM
[27]
  TGI: > 100 µM
[28]
  TGI: > 100 µM
[29]
  TGI: > 100 µM
[30]
  TGI: > 100 µM
[31]
  TGI: > 100 µM
[32]
  TGI: > 100 µM
[33]
  TGI: > 100 µM
[34]
  TGI: > 100 µM
[35]
  TGI: > 100 µM
[37]
  TGI: > 100 µM
[38]
  TGI: > 100 µM
[39]
  TGI: > 100 µM
[40]
  TGI: > 100 µM
[41]
  TGI: > 100 µM
[42]
  TGI: > 100 µM
[43]
  TGI: > 100 µM
[44]
  TGI: > 100 µM
[45]
  TGI: > 100 µM
[46]
  TGI: > 100 µM
[47]
  TGI: > 100 µM
[48]
  TGI: > 100 µM
[49]
  TGI: > 100 µM
[50]
  TGI: > 100 µM
[51]
  TGI: > 100 µM
[52]
  TGI: > 100 µM
[53]
  TGI: > 100 µM
[54]
  TGI: > 100 µM
[55]
  TGI: > 100 µM
[56]
  TGI: > 100 µM
[57]
  TGI: > 100 µM
[58]
  TGI: > 100 µM
